Results from patent US10918644B2, “Chemotherapeutic drug composition” (YEDITEPE UNIVERSITESI, priority 2017, dated 2021).
Several values for one entry are separate records, joined by “and”; a condition that tells them apart may be missing. Equal entries are not always repeated. Entries after “also recorded” stand apart in the source; their conditions may differ.

Columns and labels:
[1] = tested on: HEK293 cells; assay: WST-1 cell viability assay on healthy kidney cells (toxicity); assay type: cell-based, human
Method: (§1) The WST-1 assay was performed to determine cell viability. The working principle of this assay is based on the conversion of the stable tetrazolium salt WST-1 into soluble formazan by viable cells. During conversion of WST-1 to formazan, a color change that is measurable at 450 and 630 nm wavelengths occurs in the cell medium. In other words, the amount of formazan dye is proportional to the number of metabolically active (viable) cells. The color change was evaluated by measuring the absorbance in the ELISA device and the obtained values were analyzed using the Graph Pad Prism 7 database.
Human embryonic kidney (HEK293) cells were used as a cell model to test whether Everolimus and ABT-737 had any toxic effects on healthy kidney cells. HEK293 cells were treated with the drug composition (1 μM for Everolimus and 5 μM for ABT-737) for 3 days and the toxicity response was determined by measuring cell viability by WST-1 assay for 3 days.

[2] = tested on: Caki-1 cells; assay: WST-1 cell viability assay, Caki-1 cells; assay type: cell-based
Method: as §1
(§2) To determine the toxic effect of Everolimus and ABT-737 on cell viability, primary A-498 and metastatic Caki-1 RCC cell lines that are resistant to drug Everolimus were used in this study and the toxic effect was determined by using the WST-1 method.
(§3) Everolimus and ABT-737 drugs were administered to A-498 and Caki-1 cells, which were seeded in 96-well culture plates, for three days to determine the appropriate dose for the combination. The effect of the drugs prepared at three different concentrations (1, 5, or 10 μM) on cell viability was determined using the WST-1 method. […] The amount of drug composition for Caki-1 (10,000 cells/well) metastatic cells was determined as 1 μM Everolimus and 10 μM ABT-737. […]

[3] = tested on: Everolimus-resistant RenCa (erRenCa) cells; assay: In vivo tumor model with erRenCa cells injected into the dorsal area; set-up: species or system Balb/c mice; conditions: for animals with tumor formation: 2 mg/kg Everolimus and/or 75 mg/kg ABT-737 intraperitoneally every other day from day 4, 11 injections, eight animals per group
Method: Everolimus stock solution was prepared by dissolving 10 mg lyophilized Everolimus in 1.043 ml DMSO (Dimethyl sulfoxide) (9.6 mg/ml) and ABT-737 stock solution was prepared by dissolving 10 mg ABT-737 in 1.229 ml DMSO (8.14 mg/ml). Stock concentration of both drugs was 10 mM. For in vitro conditions, dilutions were made in cell culture medium at concentrations ranging from 1-5 μM from Everolimus stock concentration. For in vivo conditions, the drug Everolimus that will be injected to animals was prepared by diluting the stock concentration in PBS (Phosphate-buffered saline) to a concentration of 2 mg/kg. For in vitro conditions, dilutions were made in cell culture medium at concentrations ranging from 1-10 μM from ABT-737 stock concentration. For in vivo conditions, the drug ABT-737 that will be injected to animals was prepared by diluting the stock concentration in PBS (Phosphate-buffered saline) to a concentration of 75 mg/kg. Prior to injection, the volume of the injected drug is adjusted to 200 μl by addition of PBS (Phosphate-buffered saline). The drugs were injected into the animals separately one minute apart without being mixed.
(§4) The process of tumor development was monitored.
These erRenCa kidney cancer cells were used as a cancer cell line to form a kidney cancer tumor model in animals. For this purpose, cells were subcutaneously injected into the dorsal area of Balb/c mice. […] The experiment was terminated at the end of 11 injections. […] In order to develop resistance to Everolimus, erRenCa cells inactivated their mTOR pathway and began to use the Bcl-2 pathway for their survival. Therefore, cancer cells could only undergo cell death after blocking the anti-apoptotic Bcl-2 survival pathway with the drug ABT-737.

[4] = tested on: Caki-1 cells; assay: Annexin-V cell death detection assay, Caki-1 cells; assay type: cell-based; conditions: 1 μM Everolimus and 10 μM ABT-737, or ABT-737 monotherapy; 24, 48 and 72 hours
[5] = mouse, in vivo
Description: At the end of the experiment, the organs including thymus, heart, stomach, intestine, kidney, spleen, testis, lung, liver, and brain were taken from the animals in each group and were sent for pathological examination. […] At the same time, the metastatic focus in these tissues was also examined.

[6] = tested on: mTOR pathway in A-498 cells; assay: Western Blotting of mTOR pathway proteins, A-498 cells; assay type: cell-based; conditions: 1 μM Everolimus alone or with 5 μM ABT-737, 24 hours
Method: (§5) A-498 and Caki-1 RCC cells were used to investigate the molecular effect of the Everolimus and ABT-737 drug composition on the mTOR pathway. A-498 cells and Caki-1 cells seeded in 6-well plates were treated for 24 hours with 1 μM Everolimus and 5 μM ABT-737 and 1 μM Everolimus and 10 μM ABT-737, respectively. At the end of 24 hours, proteins were isolated from the cells. These proteins were then used to determine the expression of proteins that play a key role in the mTOR pathway by performing the Western Blotting technique.

[7] = tested on: A-498 cells; assay: WST-1 cell viability assay, A-498 cells; assay type: cell-based; conditions: Everolimus monotherapy, 1, 5 or 10 μM, three days
Method: as §1, §2, §3

[8] = tested on: RenCa cells; assay: WST-1 cell viability assay, RenCa cells; assay type: cell-based, murine; conditions: Everolimus 1, 5 and 10 μM, after 48 hours of treatment
Method: as §1, §4

[9] = cited from earlier work; for prolonged progression-free survival: treatment of metastatic RCC
[10] = tested on: Everolimus-resistant RenCa (erRenCa) cells; assay: WST-1 cell viability assay, Everolimus-resistant RenCa cells; assay type: cell-based, murine; conditions: Everolimus 1, 5 and 10 μM, at the end of three days
Method: as §1
RenCa cells were made resistant to Everolimus for the use in in vivo experiments. In this regard, RenCa cells were seeded in 96-well culture plates. After 24 hours, the cells were treated with 1 μM Everolimus for 72 hours. At the end of 72 hours, the cells were washed with PBS (Phosphate-buffered saline) and treated with 10 μM Everolimus for an additional 72 hours. Cells that developed resistance to Everolimus were transferred to 6-well culture plates and were grown in an Everolimus-free medium. Cells reaching a density of 90% were transferred to T-75 culture plates and were grown for 2 months in a medium containing 1 μM Everolimus.
as §4

[11] = tested on: mTOR pathway in Caki-1 cells; assay: Western Blotting of mTOR pathway proteins, Caki-1 cells; assay type: cell-based; conditions: 1 μM Everolimus alone or with 10 μM ABT-737, 24 hours
Method: as §5

[12] = ABT-737 group, 75 mg/kg intraperitoneally every other day
[13] = Everolimus group, 2 mg/kg intraperitoneally every other day, 2 mg/kg

Compound: CN(C)CC[C@H](CSc1ccccc1)Nc1ccc(S(=O)(=O)NC(=O)c2ccc(N3CCN(Cc4ccccc4-c4ccc(Cl)cc4)CC3)cc2)cc1[N+](=O)[O-] [ABT-737]
- decrease in the cell viability of healthy kidney cells ([1]; 5 μM ABT-737, third day of the treatment): did not cause any decrease
- decrease in cell viability ([2]; ABT-737 monotherapy, after 72 hours): 80%
- animals with tumor formation [3]: three of the eight
- Grade (WHO/ISUP, per animal H1-H8) [3, 12]: 4
- Necrosis (per animal H1-H8) [3, 12]: No
- Tumor (pathological examination, per animal H1-H8) ([3]; ABT-737 group, 75 mg/kg intraperitoneally every other day, 75 mg/kg): No tumor; also recorded: Renal cell carcinoma
- apoptosis mediated cell death (Annexin-V) [4]: more significant increase in the cell death compared to the combination
- toxic effects on the animals (pathological examination of the tissues) [5]: did not show any toxic effects

Compound: CO[C@H]1C[C@@H]2CC[C@@H](C)[C@@](O)(O2)C(=O)C(=O)N2CCCC[C@H]2C(=O)O[C@H]([C@H](C)C[C@@H]2CC[C@@H](OCCO)[C@H](OC)C2)CC(=O)[C@H](C)/C=C(\C)[C@@H](O)[C@@H](OC)C(=O)[C@H](C)C[C@H](C)/C=C/C=C/C=C/1C [Everolimus]
- cytotoxic effect on healthy kidney cells ([1]; 1 μM Everolimus, 24 and 48 hours): did not show any cytotoxic effect
- decrease in the cell viability compared to untreated control cells ([1]; 1 μM Everolimus, 72 hour-treatment): 50%
- response of cell viability to Everolimus (toxicology results) ([2]; Everolimus monotherapy, 1, 5 or 10 μM, three days): resistant
- animals with tumor formation [3]: four of the eight
- Grade (WHO/ISUP, per animal H1-H8) [3, 13]: 4 (3×) and 2
- Necrosis (per animal H1-H8) [3, 13]: No (7×) and Yes
- Tumor (pathological examination, per animal H1-H8) [3, 13]: Renal cell carcinoma; also recorded: No tumor
- S6 protein phosphorylated at serine 240/244 (S6-S240/244P) [6]: decrease
- basal p70S6K protein expression ([6]; vs control cells): decreased
- p70S6K protein phosphorylated at threonine 389 (p70S6K-T389P) ([6]; vs control cells): decrease
- autophosphorylation of the mTOR kinase at serine 2448 (mTOR-S2448P) ([6]; vs untreated control cells): diminished
- response of cell viability to Everolimus (toxicology results) [7]: resistant
- effect on cell viability [8]: caused toxic effects
- increase of survival ([9]; advanced stage RCC, Phase III clinical trials, after failure of VEGF therapy): about 4.9 months
- prolonged progression-free survival [9]: up to 4.9 months
- toxic effects on the animals (pathological examination of the tissues) [5]: did not show any toxic effects
- change in cell viability [10]: did not cause any change
- S6 protein phosphorylated at serine 240/244 (S6-S240/244P) [11]: decrease
- basal p70S6K protein expression ([11]; vs control cells): decreased
- p70S6K protein phosphorylated at threonine 389 (p70S6K-T389P) ([11]; vs control cells): decrease
- autophosphorylation of the mTOR kinase at serine 2448 (mTOR-S2448P) ([11]; vs untreated control cells): diminished

Compound: CO[C@H]1C[C@@H]2CC[C@@H](C)[C@@](O)(O2)C(=O)C(=O)N2CCCC[C@H]2C(=O)O[C@H]([C@H](C)C[C@@H]2CC[C@@H](OC(=O)C(C)(CO)CO)[C@H](OC)C2)CC(=O)[C@H](C)/C=C(\C)[C@@H](O)[C@@H](OC)C(=O)[C@H](C)C[C@H](C)/C=C/C=C/C=C/1C [Temsirolimus]
- prolonged progression-free survival [9]: up to 3.8 months

Compound: CNC(=O)c1cc(Oc2ccc(NC(=O)Nc3ccc(Cl)c(C(F)(F)F)c3)cc2)ccn1 [Sorafenib]
- prolonged progression-free survival [9]: up to 5.9 months
